Reference: ChEMBL document CHEMBL6121019, “Design, synthesis and biological evaluation of bisnoralcohol derivatives as novel IRF4 inhibitors for the treatment of multiple myeloma” (Eur J Med Chem, 2025)
Calls of active or inactive are those of the source. No cut-off for these calls is given here.

Key:
[1] = AUC (0 to t) in ICR mouse plasma at 10 mg/kg, po; assay type: ADME, organism-based
[2] = AUC (0 to infinity) in ICR mouse plasma at 10 mg/kg, po; assay type: ADME, organism-based
[3] = system: NCI-H929; experiment: Antiproliferative activity against human NCI-H929 cells with siRNA mediated IRF4 knockdown measured upto 5 days by MTS assay; assay type: functional, cell-based; conditions: time <= 5.0 day
[4] = system: NCI-H929; experiment: Downregulation of CANX expression in human NCI-H929 cells measured after 24 hrs by qRT-PCR analysis; assay type: functional, cell-based; conditions: dose 0.125-1 µM
[5] = system: MM.1R; experiment: Downregulation of E2F5 expression in human MM1.R cells measured after 24 hrs by qRT-PCR analysis; assay type: functional, cell-based; conditions: dose 0.125-1 µM
[6] = Potency index, ratio of IC50 for lenalidomide to test compound IC50 for antiproliferative activity against human NCI-H929 cells assessed as inhibition of cell growth measured after 72 hrs by MTS assay; assay type: functional
[7] = system: NCI-H929; experiment: Downregulation of CMYC expression in human NCI-H929 cells measured after 24 hrs by qRT-PCR analysis; assay type: functional, cell-based; conditions: dose 0.125-1 µM
[8] = system: NCI-H929; experiment: Downregulation of CCNC expression in human NCI-H929 cells measured after 24 hrs by qRT-PCR analysis; assay type: functional, cell-based; conditions: dose 0.125-1 µM
[9] = Tmax in ICR mouse plasma at 1.0 mg/kg, iv; assay type: ADME, organism-based
[10] = system: RPMI-8226; experiment: Antiproliferative activity against human RPMI-8226 cells overexpressing IRF4 at 0.125 to 1 uM measured after 72 hrs by MTS assay; assay type: functional, cell-based; conditions: dose 0.125-1 µM
[11] = Selectivity ratio IC50 for human RPMI-8226 cells to IC50 for human MM1.R cells; assay type: toxicity
[12] = system: MM.1R; experiment: Inhibition of AKT phosphorylation level in human MM1.R cells at 0.1 to 1 uM by Western blot analysis; assay type: functional, cell-based; conditions: dose 0.1-1 µM
[13] = system: NCI-H929; experiment: Effect on IRF4 expression in human NCI-H929 cells with siRNA mediated IRF4 knockdown by Western blot analysis; assay type: functional, cell-based
[14] = system: NCI-H929; experiment: Induction of DNA damage in human NCI-H929 cells assessed as increase in gammaH2AX expression at 0.1 to 1 uM by Western blot analysis; assay type: functional, cell-based; conditions: dose 0.1-1 µM
[15] = system: MM.1R; experiment: Downregulation of HK2 expression in human MM1.R cells measured after 24 hrs by qRT-PCR analysis; assay type: functional, cell-based; conditions: dose 0.125-1 µM
[16] = system: NCI-H929; experiment: Induction of cell cycle arrest in human NCI-H929 cells assessed as accumulation of cells at S phase at 0.25 uM measured after 24 hrs by flow cytometry analysis (reference value: 32.14%); assay type: functional
[17] = system: NCI-H929; experiment: Induction of cell cycle arrest in human NCI-H929 cells assessed as inhibition of CMYC protein expression at 0.1 to 1 uM; assay type: functional, cell-based; conditions: dose 0.1-1 µM
[18] = system: NCI-H929; experiment: Induction of cell cycle arrest in human NCI-H929 cells assessed as accumulation of cells at G1 phase at 0.125 uM measured after 24 hrs by flow cytometry analysis (reference value: 54.12%); assay type: functional
[19] = Oral bioavailability in ICR mouse plasma at 10 mg/kg; assay type: ADME, organism-based
[20] = system: MM.1R; experiment: Induction of cell cycle arrest in human MM1.R cells assessed as inhibition of cyclin D1 protein expression at 0.1 to 1 uM; assay type: functional, cell-based; conditions: dose 0.1-1 µM
[21] = system: MM.1R; experiment: Induction of cell cycle arrest in human MM1.R cells assessed as inhibition of CMYC protein expression at 0.1 to 1 uM; assay type: functional, cell-based; conditions: dose 0.1-1 µM
[22] = system: NCI-H929; experiment: Inhibition of AKT phosphorylation level in human NCI-H929 cells at 0.1 to 1 uM by Western blot analysis; assay type: functional, cell-based; conditions: dose 0.1-1 µM
[23] = system: RPMI-8226; experiment: Antiproliferative activity against human RPMI-8226 cells assessed as inhibition of cell viability measured after 72 hrs by MTS assay; assay type: functional, cell-based; conditions: RPMI-8226, 72 h
[24] = system: RPMI-8226; experiment: Effect on IRF4 expression in human RPMI-8226 cells by Western blot analysis; assay type: functional, cell-based
[25] = system: NCI-H929; experiment: Induction of cell cycle arrest in human NCI-H929 cells assessed as accumulation of cells at G1 phase measured after 24 hrs by flow cytometry analysis; assay type: functional, cell-based; conditions: dose 0.125-0.5 µM
[26] = system: NCI-H929; experiment: Effect on IRF4 expression in human NCI-H929 cells by Western blot analysis; assay type: functional, cell-based
[27] = Cmax in ICR mouse plasma at 10 mg/kg, po; assay type: ADME, organism-based
[28] = system: NCI-H929; experiment: Downregulation of HK2 expression in human NCI-H929 cells measured after 24 hrs by qRT-PCR analysis; assay type: functional, cell-based; conditions: dose 0.125-1 µM
[29] = system: NCI-H929; experiment: Antitumor activity against human NCI-H929 cells xenografted in Balb/C nude mouse model assessed as reduction in Ki67 expression at 25 mg/kg by immunohistochemical staining based analysis; assay type: functional, organism-based
[30] = system: MM.1R; experiment: Inhibition of ERK phosphorylation level in human MM1.R cells at 0.1 to 1 uM by Western blot analysis; assay type: functional, cell-based; conditions: dose 0.1-1 µM
[31] = AUC (0 to t) in ICR mouse plasma at 1.0 mg/kg, iv; assay type: ADME, organism-based
[32] = Selectivity ratio IC50 for human RPMI-8226 cells to IC50 for human NCI-H929 cells; assay type: toxicity
[33] = system: MM.1R; experiment: Effect on IRF4 expression in human MM1.R cells by Western blot analysis; assay type: functional, cell-based
[34] = system: MM.1R; experiment: Induction of DNA damage in human MM1.R cells assessed as increase in gammaH2AX expression at 0.1 to 1 uM by Western blot analysis; assay type: functional, cell-based; conditions: dose 0.1-1 µM
[35] = system: NCI-H929; experiment: Induction of cell cycle arrest in human NCI-H929 cells assessed as accumulation of cells at S phase at 0.5 uM measured after 24 hrs by flow cytometry analysis (reference value: 32.14%); assay type: functional
[36] = target: T1, Interferon regulatory factor 4 (Homo sapiens, UniProt Q15306); experiment: Binding affinity to IRF4 (unknown origin) assessed as dissociation constant by SPR analysis
T1 sequence (Q15306 whole entry): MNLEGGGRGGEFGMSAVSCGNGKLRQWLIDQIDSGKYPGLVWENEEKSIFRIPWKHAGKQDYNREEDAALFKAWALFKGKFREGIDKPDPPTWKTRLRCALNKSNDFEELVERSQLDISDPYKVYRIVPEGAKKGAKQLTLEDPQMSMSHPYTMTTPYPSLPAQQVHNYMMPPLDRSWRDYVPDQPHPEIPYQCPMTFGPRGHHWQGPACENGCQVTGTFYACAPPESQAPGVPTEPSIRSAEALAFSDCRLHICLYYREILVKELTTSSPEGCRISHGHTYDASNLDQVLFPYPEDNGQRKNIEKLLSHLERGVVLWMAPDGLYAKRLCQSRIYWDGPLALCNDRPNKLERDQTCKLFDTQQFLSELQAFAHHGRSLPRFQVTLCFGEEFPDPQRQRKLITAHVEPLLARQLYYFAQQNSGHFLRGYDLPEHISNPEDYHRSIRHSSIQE

[37] = target: T2, Interferon regulatory factor 4 (Homo sapiens) (UniProt Q15306); experiment: Induction of thermal stabilization of IRF4 in human NCI-H929 cells at 42 to 42.3 degree C by […] method; assay type: cell-based
T2 sequence (whole entry): T1 sequence (Q15306 whole entry)

[38] = Potency index, ratio of IC50 for lenalidomide to test compound IC50 for antiproliferative activity against human RPMI-8226 cells assessed as inhibition of cell growth measured after 72 hrs by MTS assay; assay type: functional
[39] = Antiproliferative activity against human HaCaT cells assessed as inhibition of cell viability measured after 72 hrs by MTS assay; assay type: toxicity, cell-based

## COc1ccc(NC(=O)[C@@H](C)[C@H]2CC[C@H]3[C@@H]4C(=O)C=C5C(C)(C)C(=O)C(C#N)=C[C@]5(C)[C@H]4CC[C@]23C)cc1
[1]
  AUC(0-t): 285 ng·h/mL
[2]
  AUC(0-inf): 463 ng·h/mL
[3]
  Activity: Active
[4]
  Activity: Active
[5]
  Activity: Active
[6]
  Ratio IC50: 30
[7]
  Activity: Active
[8]
  Activity: Active
[9]
  Tmax: 4.8 min
[10]
  Activity: Active
[11]
  Ratio IC50: 10.8
[12]
  inhibition: Active
[13]
  Activity: Active
[14]
  Activity: Active
[15]
  Activity: Active
[16]
  Activity: 25.49%
[17]
  Activity: Active
[18]
  Activity: 57.62%
[19]
  bioavailability: 53.9%
[20]
  Activity: Active
[21]
  Activity: Active
[22]
  inhibition: Active
[23]
  IC50: 1190 nM
[24]
  Activity: Active; Compound Showed Low Expression
[25]
  Activity: Dose-dependent-effect
[26]
  Activity: Active
[27]
  Cmax: 82 ng/mL
[28]
  Activity: Active
[29]
  Activity: Active
[30]
  inhibition: Active
[31]
  AUC(0-t): 81 ng·h/mL
[32]
  Ratio IC50: 14.9
[33]
  Activity: Active
[34]
  Activity: Active
[35]
  Activity: 20.54%
[36]
  Kd: 1280 nM
[37]
  Activity: Active
[38]
  Ratio IC50: 30
[39]
  IC50 at 72 h: > 100000 nM
